# In patent publication US11371077B2, “High throughput cell-based screening for aptamers” (MeiraGTx UK II Limited, priority 2016, dated 2022):
# Structures can show the parent of a compound that is named as a salt. Where two headings read alike, the source gives them in different places. Where a SMILES comes first, the peptide text is derived from it. [ ]: non-standard residue; d: D form. The star is where a group is joined. Sta = CC(C)C[C@H](N)[C@@H](O)CC(=O)O; Isovaleryl = CC(C)CC(=O)*
# Key:
# Assay type in all cases: cell-based
# gdg6-G8 riboswitch = assay: Luciferase reporter assay, gdg6-G8 riboswitch, transfected HEK 293 cells; details: for fold induction at 100 µM: Homo sapiens, HEK293
# From the text: (§1) Riboswitches were constructed as described in PCT/US2016/016234 (in particular Examples 3 to 6), incorporated herein by reference. A truncated human beta-globin intron sequence was synthesized and inserted in the coding sequence of a firefly luciferase gene. A mutant human DHFR exon 2 was synthesized and inserted in the middle of this truncated beta-globin intron sequence using Golden gate cloning strategy. Aptamers including xpt-G/A^1, ydhl-G/A^2, yxj^3, add^4, gdg6-G/A^5 (citations for the aptamers are incorporated herein by reference) were synthesized as oligonucleotides (“oligos”) with 4 nucleotide overhang at the 5′ end that are complementary to two different BsaI sites individually (IDT), annealed and ligated to BsaI-digested mDHFR-Luci-acceptor vector.
# (§2) 3.5×10^4 HEK 293 cells were plated in a 96-well flat bottom plate the day before transfection. Plasmid DNA (500 ng) was added to a tube or a 96-well U-bottom plate. Separately, TransIT-293 reagent (Mirus; 1.4 μL) was added to 50 μL Opti-mem I media (Life Technologies), and allowed to sit for 5 minutes at room temperature (RT). Then, 50 μL of this diluted transfection reagent was added to the DNA, mixed, and incubated at RT for 20 min. Finally, 7 μL of this solution was added to a well of cells in the 96-well plate.
# (§3) 24 hours after media change, plates were removed from the incubator, and equilibrated to RT for several minutes on a lab bench, then aspirated. Glo-lysis buffer (Promega, 100 μL, RT) was added, and the plates maintained at RT for at least 5 minutes. Then, the well contents were mixed by 50 μL trituration, and 20 μL of each sample was mixed with 20 μL of bright-glo reagent (Promega) that had been diluted to 10% in glo-lysis buffer. 96 wells were spaced on an opaque white 384-well plate. Following a 5 min incubation at RT, luminescence was measured using a Tecan machine with 500 mSec read time. The luciferase activity was expressed as mean relative light unit (RLU)±S.D., and fold induction was calculated as the luciferase activity obtained with guanine treatment divided by luciferase activity obtained without guanine treatment.
# xpt-G17 riboswitch = assay: Luciferase reporter assay, xpt-G17 riboswitch, transfected HEK 293 cells; details: preliminary screen; for Fold Induction of luciferase activity: xpt-G17 riboswitch; for Fold Induction of luciferase activity / fold induction at 100 µM: Prestwick library compounds at 100 μM, HEK 293; for response of guanine riboswitch xpt-G17 to compound (FIG. 1e): Prestwick library at 100 μM; for fold induction at 100 µM: Homo sapiens, HEK293, xpt-G17 riboswitch
# From the text: (§4) A truncated human beta-globin intron sequence was synthesized and inserted in the coding sequence of a firefly luciferase gene. A mutant human DHFR exon 2 was synthesized and inserted in the middle of this truncated beta-globin intron sequence using Golden gate cloning strategy. Aptamers including xpt-G/A^1, ydhl-G/A^2, yxj^3, add^4, gdg6-G/A^5 (citations for the aptamers are incorporated herein by reference) were synthesized as oligonucleotides (“oligos”) with 4 nucleotide overhang at the 5′ end that are complementary to two different BsaI sites individually (IDT), annealed and ligated to BsaI-digested mDHFR-Luci-acceptor vector.
# as §2, §3
# ydhl-G8 riboswitch = assay: Luciferase reporter assay, ydhl-G8 riboswitch, transfected HEK 293 cells; details: for Fold Induction of luciferase activity: ydhl-G8 riboswitch, Prestwick library compounds at 100 μM, HEK 293; for fold induction at 100 µM: Homo sapiens, HEK293, read-out: Fold Induction of luciferase activity
# From the text: as §4
# as §2, with “Separately, TransIT-293 reagent (Mirus; 1.4 μL) was added to 50 μL Opti-mem I media (Life Technologies), and allowed to sit for 5 minutes at room temperature (RT).” left out
# as §3
# add-G6 riboswitch = assay: cells; details: add-G6 riboswitch, Prestwick library compounds at 100 μM, HEK 293; for fold induction at 100 µM: Homo sapiens, HEK293, read-out: Fold Induction of luciferase activity
# From the text: as §4
# as §2, with “Separately, TransIT-293 reagent (Mirus; 1.4 μL) was added to 50 μL Opti-mem I media (Life Technologies), and allowed to sit for 5 minutes at room temperature (RT).” left out
# as §3, with “The luciferase activity was expressed as mean relative light unit (RLU)±S.D., and fold induction was calculated as the luciferase activity obtained with guanine treatment divided by luciferase activity obtained without guanine treatment.” left out
# add-A6 riboswitch = assay: cells; details: add-A6 riboswitch, Prestwick library compounds at 100 μM, HEK 293; for fold induction at 100 µM: Homo sapiens, HEK293, read-out: Fold Induction of luciferase activity
# From the text: as §1, §2, §3
# yxj-A6 riboswitch = assay: cells; details: yxj-A6 riboswitch, Prestwick library compounds at 100 μM, HEK 293
# From the text: as §4, §2
# as §3, with “The luciferase activity was expressed as mean relative light unit (RLU)±S.D., and fold induction was calculated as the luciferase activity obtained with guanine treatment divided by luciferase activity obtained without guanine treatment.” left out
# gdg6-A8 riboswitch = assay: Luciferase reporter assay, gdg6-A8 riboswitch, transfected HEK 293 cells; details: for fold induction at 100 µM: Homo sapiens, HEK293
# From the text: as §1, §2, §3
# ydhl-A6 riboswitch = assay: Luciferase reporter assay, ydhl-A6 riboswitch, transfected HEK 293 cells; details: for fold induction at 100 µM: Homo sapiens
# From the text: as §4
# as §2, with “Separately, TransIT-293 reagent (Mirus; 1.4 μL) was added to 50 μL Opti-mem I media (Life Technologies), and allowed to sit for 5 minutes at room temperature (RT).” left out
# as §3
# [1] = gdg6-G8 riboswitch, Prestwick library compounds at 100 μM, HEK 293
# [2] = HEK293, read-out: Fold Induction of luciferase activity, ydhl-A6 riboswitch, Prestwick library compounds at 100 μM, HEK 293
# [3] = HEK293, read-out: Fold Induction of luciferase activity
# [4] = gdg6-A8 riboswitch, Prestwick library compounds at 100 μM, HEK 293
# [5] = ydhl-A6 riboswitch, Prestwick library compounds at 100 μM, HEK 293
molecule,measurement,setting,value
CC(=O)c1ccc2c(c1)N(CCCN(C)C)c1ccccc1S2.O=C(O)/C=C\C(=O)O [Acetopromazine maleate salt],Fold Induction of luciferase activity,gdg6-G8 riboswitch; 100 µM,3.2 fold
same,Fold Induction of luciferase activity,xpt-G17 riboswitch,4.5 fold
same,Fold Induction of luciferase activity,ydhl-G8 riboswitch,3.9 fold
same,Fold Induction of luciferase activity,add-G6 riboswitch,5.0 fold
same,Fold Induction of luciferase activity,add-A6 riboswitch,3.5 fold
same,Fold Induction of luciferase activity,yxj-A6 riboswitch,3.1 fold
same,Fold Induction of luciferase activity,gdg6-A8 riboswitch; 100 µM,8.6 fold
C=CC[N@@+]12CC[C@@]34c5ccccc5N5/C=C6/[C@H]7C[C@H]8[C@@]9(CC[N@@+]8(CC=C)C/C7=C/CO)c7ccccc7N(/C=C(/[C@@H](C[C@@H]31)/C(=C\CO)C2)[C@H]54)[C@@H]69.[Cl-].[Cl-] [Alcuronium chloride],Fold Induction of luciferase activity,add-A6 riboswitch,4.2 fold
C[C@@H]1[C@H](O)[C@@H](C)/C=C/C=C/C=C/C=C/C=C/C=C/C=C/[C@H](O[C@@H]2O[C@H](C)[C@@H](O)[C@H](N)[C@@H]2O)C[C@@H]2O[C@](O)(C[C@@H](O)C[C@@H](O)[C@H](O)CC[C@@H](O)C[C@@H](O)CC(=O)O[C@H]1C)C[C@H](O)[C@H]2C(=O)O [Amphotericin B],Fold Induction of luciferase activity,gdg6-G8 riboswitch; [1],3.8 fold
same,response of guanine riboswitch xpt-G17 to compound (FIG. 1e),xpt-G17 riboswitch,responded
same,Fold Induction of luciferase activity,xpt-G17 riboswitch,21.5 fold
same,Fold Induction of luciferase activity,ydhl-G8 riboswitch,6.5 fold
same,Fold Induction of luciferase activity,add-G6 riboswitch,10.7 fold
O=C(CCCN1CCC(n2c(O)nc3ccccc32)CC1)c1ccc(F)cc1 [Benperidol],fold induction at 100 µM,ydhl-A6 riboswitch; [2],3.1
CC(=O)O[C@]1(C(C)=O)CC[C@H]2[C@@H]3C=C(Cl)C4=CC(=O)CC[C@]4(C)[C@H]3CC[C@@]21C [Chlormadinone acetate],fold induction at 100 µM,xpt-G17 riboswitch,10.3
same,response of guanine riboswitch xpt-G17 to compound (FIG. 1e),xpt-G17 riboswitch,responded
same,fold induction at 100 µM,ydhl-G8 riboswitch,10.4
same,fold induction at 100 µM,add-G6 riboswitch,26.1
C[C@]12CC[C@H](O)C[C@H]1CC[C@@H]1[C@@H]2C[C@@H](O)[C@]2(C)[C@@H](C3=CC(=O)OC3)CC[C@]12O [Digoxigenin],fold induction at 100 µM,ydhl-A6 riboswitch; [2],4.5
same,Fold Induction of luciferase activity,"ydhl-A6 riboswitch; ydhl-A6 riboswitch, Prestwick library compounds at 100 μM, HEK 293, 100 µM",3.3 fold
C[C@]12CC[C@@H]3c4ccc(O)cc4CC[C@H]3[C@@H]1C[C@@H](O)[C@@H]2O [Estriol],fold induction at 100 µM,gdg6-G8 riboswitch; [1],4.3
O=C(OCCOCCO)c1ccccc1Nc1cccc(C(F)(F)F)c1 [Etofenamate],fold induction at 100 µM,xpt-G17 riboswitch,7.5
same,fold induction at 100 µM,ydhl-G8 riboswitch,4.8
same,fold induction at 100 µM,add-G6 riboswitch,5.1
NS(=O)(=O)c1cc2c(cc1Cl)NCNS2(=O)=O [Hydrochlorothiazide],fold induction at 100 µM,ydhl-A6 riboswitch; [2],3.3
COC1=C(OC)C(=O)C(CCCCCCCCCCO)=C(C)C1=O [Idebenone],fold induction at 100 µM,ydhl-A6 riboswitch; [3],3.5
same,fold induction at 100 µM,xpt-G17 riboswitch,3.3
same,fold induction at 100 µM,add-G6 riboswitch,6.7
CNC1(C)C2CCC(C2)C1(C)C (centres unmarked) [Mecamylamine hydrochloride],fold induction at 100 µM,ydhl-A6 riboswitch; [2],3.2
COC(=O)Nc1nc2ccc(SC(C)C)cc2[nH]1 [Methiazole],Fold Induction of luciferase activity,gdg6-G8 riboswitch; [1],3.3 fold
same,Fold Induction of luciferase activity,gdg6-A8 riboswitch; [4],3.8 fold
NC(=O)C[S+]([O-])C(c1ccccc1)c1ccccc1 (centres unmarked) [Modafinil],fold induction at 100 µM,ydhl-A6 riboswitch; [2],3.8
CCOC(=O)Nc1ccc2c(c1)N(C(=O)CCN1CCOCC1)c1ccccc1S2 [Moricizine hydrochloride],fold induction at 100 µM,ydhl-A6 riboswitch; [3],10.3
CNc1ncnc2c1ncn2[C@@H]1O[C@H](CO)[C@@H](O)[C@H]1O [N6-methyladenosine],fold induction at 100 µM,xpt-G17 riboswitch,30.7
same,response of guanine riboswitch xpt-G17 to compound (FIG. 1e),xpt-G17 riboswitch,responded
same,fold induction at 100 µM,ydhl-G8 riboswitch,10.7
same,fold induction at 100 µM,add-G6 riboswitch,20.8
NC(=O)c1ccc[n+]([C@@H]2O[C@H](COP(=O)([O-])OP(=O)(O)OC[C@H]3O[C@@H](n4cnc5c(N)ncnc54)[C@H](O)[C@@H]3O)[C@@H](O)[C@H]2O)c1 [Nadide],fold induction at 100 µM,xpt-G17 riboswitch,~40
same,response of guanine riboswitch xpt-G17 to compound (FIG. 1e),xpt-G17 riboswitch,responded
same,Fold Induction of luciferase activity,xpt-G17 riboswitch; 100 µM,40.9 fold
same,fold induction at 100 µM,ydhl-G8 riboswitch,11.7
same,fold induction at 100 µM,add-G6 riboswitch,30.8
OCCN1CCN(CCCN2c3ccccc3C=Cc3ccccc32)CC1 [Opipramol dihydrochloride],fold induction at 100 µM,add-A6 riboswitch,4.3
same,fold induction at 100 µM,gdg6-A8 riboswitch; [4],3.1
O=C(O)CCc1nc(-c2ccccc2)c(-c2ccccc2)o1 [Oxaprozin],fold induction at 100 µM,ydhl-A6 riboswitch; [2],3.4
CC(C)(C)NC[C@H](O)COc1ccccc1C1CCCC1 [Penbutolol sulfate],fold induction at 100 µM,gdg6-G8 riboswitch; [1],3.3
CC(C)CC(=O)N[C@H](C(=O)N[C@H](C(=O)N[C@@H](CC(C)C)[C@@H](O)CC(=O)N[C@@H](C)C(=O)N[C@@H](CC(C)C)[C@@H](O)CC(=O)O)C(C)C)C(C)C [Pepstatin A] (Isovaleryl-VV[Sta]A[Sta]-OH),Fold Induction of luciferase activity,ydhl-A6 riboswitch; [5],4.0 fold
CCN1CCCC(OC(=O)C(c2ccccc2)c2ccccc2)C1 (centres unmarked) [Piperidolate hydrochloride],fold induction at 100 µM,ydhl-A6 riboswitch; [3],3.4
Nc1ccc(S(=O)(=O)Nc2cnc3ccccc3n2)cc1 [Sulfaquinoxaline sodium],fold induction at 100 µM,add-A6 riboswitch,3.3
same,fold induction at 100 µM,"yxj-A6 riboswitch; Homo sapiens, HEK293, read-out: Fold Induction of luciferase activity",3.4
COc1cc2nc(N3CCN(C(=O)C4CCCO4)CC3)nc(N)c2cc1OC (centres unmarked) [Terazosin hydrochloride],fold induction at 100 µM,add-A6 riboswitch,3.5
Clc1ccccc1CN1CCc2sccc2C1 [Ticlopidine hydrochloride],fold induction at 100 µM,"ydhl-A6 riboswitch; HEK293, ydhl-A6 riboswitch, Prestwick library compounds at 100 μM, HEK 293, read-out: Fold Induction of luciferase activity",3.1
CC[C@]12CCCN3CCc4c(n(c5ccccc45)[C@@](O)(C(=O)OC)C1)[C@@H]32 [Vincamine],fold induction at 100 µM,ydhl-A6 riboswitch; [3],3.3
O=C(CCCCCCC(=O)Nc1ccccc1)NO [Vorinostat],fold induction at 100 µM,gdg6-G8 riboswitch; [1],10.2
same,fold induction at 100 µM,ydhl-G8 riboswitch,3
same,fold induction at 100 µM,add-G6 riboswitch,3.6
same,fold induction at 100 µM,gdg6-A8 riboswitch; [4],6.4
Alverine citrate salt,Fold Induction of luciferase activity,ydhl-A6 riboswitch; [5],4.2 fold
Deptropine citrate,Fold Induction of luciferase activity,add-A6 riboswitch,3.3 fold
Trimeprazine tartrate,Fold Induction of luciferase activity,gdg6-G8 riboswitch; 100 µM,6.2 fold
same,Fold Induction of luciferase activity,xpt-G17 riboswitch,4.9 fold
same,Fold Induction of luciferase activity,ydhl-G8 riboswitch,5.0 fold
same,Fold Induction of luciferase activity,add-G6 riboswitch,6.2 fold
same,Fold Induction of luciferase activity,add-A6 riboswitch,4.0 fold
same,Fold Induction of luciferase activity,yxj-A6 riboswitch,7.0 fold
same,Fold Induction of luciferase activity,gdg6-A8 riboswitch; 100 µM,8.7 fold
Trimipramine maleate salt,Fold Induction of luciferase activity,gdg6-G8 riboswitch; 100 µM,3.3 fold
same,Fold Induction of luciferase activity,add-G6 riboswitch,3.4 fold
same,Fold Induction of luciferase activity,add-A6 riboswitch,3.4 fold
same,Fold Induction of luciferase activity,yxj-A6 riboswitch,3.3 fold
same,Fold Induction of luciferase activity,gdg6-A8 riboswitch; 100 µM,5.3 fold
